Experimental data: US5459270A, “Azacyclic compounds, processes for their preparation and pharmaceutical compositions containing them” (Merck Sharp & Dohme Limited, priority 1991, dated 1995)
Where “and” joins values, the source holds several entries; their conditions need not be identical. Identical values can stand only once. Counter-ions that a name gives are not always drawn. Like-named read-outs stand apart in the source and are kept apart here.

Biological target: human neurokinin-1-receptor (NK1R) (Homo sapiens, UniProt P25103)
Sequence (P25103 whole entry): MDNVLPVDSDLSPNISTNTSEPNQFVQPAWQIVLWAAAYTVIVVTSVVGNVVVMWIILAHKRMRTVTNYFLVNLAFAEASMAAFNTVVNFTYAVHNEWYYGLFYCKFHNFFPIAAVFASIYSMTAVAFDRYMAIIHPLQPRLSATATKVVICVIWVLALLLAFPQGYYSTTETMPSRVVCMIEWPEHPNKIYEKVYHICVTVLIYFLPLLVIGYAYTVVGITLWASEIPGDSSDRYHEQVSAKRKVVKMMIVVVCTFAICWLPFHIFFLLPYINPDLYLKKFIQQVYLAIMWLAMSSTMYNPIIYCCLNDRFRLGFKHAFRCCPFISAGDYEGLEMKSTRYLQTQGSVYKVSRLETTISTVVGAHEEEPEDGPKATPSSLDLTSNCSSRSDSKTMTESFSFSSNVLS
Experiment: biochemical
Assay type: binding
Conditions: for IC50: displacement of 125I-substance P, read-out: IC50 @ NKIR; for inhibition at 1 µM / inhibition at 0.3 µM: 1 h; for inhibition at 1 µM: read-out: % @ 1 μM (in column IC50 @ NKIR); for inhibition at 0.3 µM: read-out: % @ 300 nM (in column IC50 @ NKIR)
Procedure: To express the cloned human neurokinin-1-receptor (NK1R) transiently in COS, the cDNA for the human NK1R was cloned into the expression vector pCDM9 which was derived from pCDM8 (INVITROGEN) by inserting the ampicillin resistance gene (nucleotide 1973 to 2964 from BLUESCRIPT SK+ (trademark, […], La Jolla, Calif., USA)) into the Sac II site. Transfection of 20 ug of the plasmid DNA into 10 million COS cells was achieved by electroporation in 800 μl of transfection buffer (135 mM NaCl, 1.2 mM CaCl2, 1.2 mM MgCl2, 2.4 mM K2 HPO4, 0.6 mM KH2 PO4, 10 mM glucose, 10 mM N-2-hydroxyethyl-piperazine-N'-2-ethane sulphonic acid (HEPES) pH 7.4) at 260 V and 950 μF using the IBI GENEZAPPER (trademark IBI, New Haven, Conn., USA). The cells were incubated in 10% fetal calf serum, 2 mM glutamine, 100 U/ml penicillin-streptomycin, and 90% DMEM media (GIBCO, Grand Island, N.Y., USA) in 5% CO2 at 37° C. for three days before the binding assay.
To establish a stable cell line expressing cloned human NK1R, the cDNA was subcloned into the vector pRcCMV (INVITROGEN). Transfection of 20 μg of the plasmid DNA into CHO cells was achieved by electroporation in 800 μl of transfection buffer supplemented with 0.625 mg/ml Herring sperm DNA at 300 V and 950 μF using the IBI GENEZAPPER (IBI). The transfected cells were incubated in CHO media [10% fetal calf serum, 100 U/ml penicillin-streptomycin, 2 mM glutamine, 1/500 hypoxanthine-thymidine (ATCC), 90% IMDM media (JRH BIOSCIENCES, Lenexa, Kans., USA), 0.7 mg/ml G418 (GIBCO)] in 5% CO2 at 37° C. until colonies were visible. Each colony was separated and propagated. The cell clone with the highest number of human NK1R was selected for subsequent applications such as drug screening.
The binding assay of human NK1R expressed in either COS or CHO cells is based on the use of ^125 I-substance P (^125 I-SP, from DU PONT, Boston, Mass.) as a radioactively labeled ligand which competes with unlabeled substance P or any other ligand for binding to the human NK1R. […] The tubes were incubated at 4° C. or at room temperature for 1 hour with gentle shaking. The bound radioactivity was separated from unbound radioactivity by GF/C filter (BRANDEL, Gaithersburg, Md.) which was pre-wetted with 0.1% polyethylenimine. The filter was washed with 3 ml of wash buffer (50 mM Tris pH 7.5, 5 mM MnCl2, 50 mM NaCl) three times and its radioactivity was determined by gamma counter.

[1] = 300 nM, human NK1R in COS or CHO cells, 125I-substance P

Structure (SMILES)	IC50 (human NK1R in COS or CHO cells)	other results
Cc1cc(C)cc(CO[C@H]2CCN(C)[C@H]2C(c2ccccc2)c2ccccc2)c1 (relative stereo) [Example 1, cis 2-(Diphenylmethyl)-3-(3,5-dimethylbenzyloxy)-1-methylpyrrolidine]	14 nM	
Cc1cc(C)cc(CO[C@H]2CCCN[C@H]2c2ccccc2)c1 (relative stereo) [Example 2, cis-3-((3,5-Dimethylphenyl)methyloxy)-2-phenylpiperidine hydrochloride salt]	< 3 nM	
FC(F)(F)c1cc(CO[C@H]2CCCN[C@H]2c2ccccc2)cc(C(F)(F)F)c1 (relative stereo) [Example 4, cis-3-((3,5-Bis(trifluoromethyl)phenyl)methyloxy)-2-phenylpiperidine hydrochloride salt]	2 nM and 1.4 nM	
Cc1cc(C)cc(CO[C@@H]2CCCN[C@H]2c2ccccc2)c1 (relative stereo) [Example 12, trans-((3.5-Dimethylphenyl)methyloxy)-2-phenyl piperidine hydrochloride salt]		inhibition at 1 µM (1 μM, human NK1R in COS or CHO cells, 125I-substance P): 46%
FC(F)(F)c1cc(CO[C@@H]2CCCN[C@H]2c2ccccc2)cc(C(F)(F)F)c1 (relative stereo) [Example 13, trans-3-((3,5-Bis(trifluoromethyl)phenyl)methyloxy)-2-phenyl piperidine hydrochloride salt]	300 nM	
FC(F)(F)c1cc(CO[C@H]2CCCN[C@H]2c2ccccc2Cl)cc(C(F)(F)F)c1 (relative stereo) [Example 21, cis-3-((3,5-Bis(trifluoromethyl)phenyl)methyloxy)-2-(2-chlorophenyl)piperidine]	40 nM	
FC(F)(F)c1cc(CO[C@H]2CCCN[C@H]2c2cccc(Cl)c2)cc(C(F)(F)F)c1 (relative stereo) [Example 22, cis-3-((3,5-Bis(trifluoromethyl)phenyl)methyloxy)-2-(3-chlorophenyl)piperidine hydrochloride salt]	5 nM	
FC(F)(F)c1cc(CO[C@H]2CCCN[C@H]2c2ccc(Cl)cc2)cc(C(F)(F)F)c1 (relative stereo) [Example 23, cis-3-((3,5-Bis(trifluoromethyl)phenyl)methyloxy)-2-(4-chlorophenyl)piperidine hydrochloride salt]	35 nM	
Cc1ccc([C@@H]2NCCC[C@@H]2OCc2cc(C(F)(F)F)cc(C(F)(F)F)c2)cc1 (relative stereo) [Example 24, cis-3-(3,5,-Bis(trifluoromethyl)phenyl)methyloxy)-2-(4-methylphenyl)piperidine hydrochloride salt]	15 nM	
FC(F)(F)c1cc(CO[C@H]2CCCN[C@H]2c2cccs2)cc(C(F)(F)F)c1 (relative stereo) [Example 25, cis-3-((3,5-Bis(trifluoromethyl)phenyl)methyloxy)-2-thienyl piperidine hydrochloride salt]	70 nM	
FC(F)(F)c1cc(CO[C@H]2CCCN[C@H]2c2ccccn2)cc(C(F)(F)F)c1 (relative stereo) [Example 26, cis-3-((3,5-Bis(trifluoromethyl)phenyl)methyloxy)-2-pyridyl piperidine dihydrochloride salt]		inhibition at 0.3 µM [1]: 41%
COc1ccc(CN2C(=O)CC[C@H](OCc3cc(C(F)(F)F)cc(C(F)(F)F)c3)[C@@H]2c2ccccc2)cc1 (relative stereo) [Example 27, cis-3-((3,5-Bis(trifluoromethyl)phenyl)methyloxy)-6-keto1-(4-methoxybenzyl)-2-phenyl piperidine]	160 nM	
O=C1CC[C@H](OCc2cc(C(F)(F)F)cc(C(F)(F)F)c2)[C@H](c2ccccc2)N1 (relative stereo) [Example 28, cis-3-((3,5-Bis(trifluoromethyl)phenyl)methyloxy)-6-keto-2-phenyl piperidine]	15 nM	
COC(=O)CCN1CCC[C@H](OCc2cc(C(F)(F)F)cc(C(F)(F)F)c2)[C@@H]1c1ccccc1 (relative stereo) [Example 29, cis-3-((3,5-Bis(trifluoromethyl)phenyl)methyloxy)-1-(2-carbomethoxy)ethyl-2-phenylpiperidine]	40 nM	
COC(=O)CCCN1CCC[C@H](OCc2cc(C(F)(F)F)cc(C(F)(F)F)c2)[C@@H]1c1ccccc1 (relative stereo) [Example 31, cis-3-((3,5Bis(trifluoromethyl)phenyl)methyloxy)-1-(3-carbomethoxy)propyl-2-phenylpiperidine]	100 nM	
c1ccc(CO[C@H]2CCCN[C@H]2c2ccccc2)cc1 (relative stereo) [Example 34, cis-2-Phenyl-3-(phenylmethyloxy)piperidine oxalate salt]		inhibition at 1 µM: 53%
CC(C)(C)c1cc(CO[C@H]2CCCN[C@H]2c2ccccc2)cc(C(C)(C)C)c1 (relative stereo) [Example 35, cis-3-((3,5.-Di-t-butylphenyl)methyloxy)-2-phenylpiperidine oxalate salt]	100 nM	
NC(=O)C(=O)N1CCC[C@H](OCc2cc(C(F)(F)F)cc(C(F)(F)F)c2)[C@@H]1c1ccccc1 (relative stereo) [Example 38]	150 nM	
NC(CN1CCC[C@H](OCc2cc(C(F)(F)F)cc(C(F)(F)F)c2)[C@@H]1c1ccccc1)=NO (relative stereo) [Example 39]	0.9 nM	
N#CCN1CCC[C@H](OCc2cc(C(F)(F)F)cc(C(F)(F)F)c2)[C@@H]1c1ccccc1 (relative stereo) [Example 40, cis-3 ((3,5Bis(trifluoromethyl)phenyl)methyloxy)-1-cyanomethyl-2-phenylpiperidinium hydrochloride]	15 nM	
FC(F)(F)c1cc(CO[C@H]2CCCN(Cc3cc(C(F)(F)F)cc(C(F)(F)F)c3)[C@H]2c2ccccc2)cc(C(F)(F)F)c1 (relative stereo) [Example 42]		inhibition at 0.3 µM [1]: 45%
COc1ccc([N+](=O)[O-])cc1CO[C@H]1CCCN[C@H]1c1ccccc1 (relative stereo) [Example 45, cis-3-((2-Methoxy-5-nitrophenyl)methyloxy)-2-phenylpiperidine hydrochloride salt]		inhibition at 0.3 µM: 42%
Clc1cc(Cl)cc(CO[C@H]2CCCN[C@H]2c2ccccc2)c1 (relative stereo) [Example 47, cis-3-((3,5-Dichlorophenyl)methyloxy)-2-phenylpiperidine hydrochloride salt]	2 nM	
Cc1cc(C)cc(CO[C@H]2CN(C)[C@H]2c2ccccc2)c1 (relative stereo) [Example 51, cis-3-((3,5-Dimethylphenyl)methyloxy)-1-methyl-2-phenyl azetidine oxalate salt]		inhibition at 1 µM: 40%
N#Cc1cccc(CO[C@H]2CCCN[C@H]2c2ccccc2)c1 (relative stereo) [Example 53, cis-3((3-cyanophenyl)methyloxy)-2-phenylpiperidine hydrochloride salt]		inhibition at 0.3 µM: 40%
COC(=O)C(C)N1CCCC(OCc2cc(C(F)(F)F)cc(C(F)(F)F)c2)C1c1ccccc1 (single isomer, unassigned) [Example 18]	0.6 nM	
CC(C(N)=O)N1CCC[C@H](OCc2cc(C(F)(F)F)cc(C(F)(F)F)c2)[C@@H]1c1ccccc1 (single isomer, unassigned) [Example 19, hydrochloride]	0.9 nM	
CCN(CC)C(=O)CN1CCCC(OCc2cc(C(F)(F)F)cc(C(F)(F)F)c2)C1c1ccccc1 (single isomer, unassigned) [Example 43, cis-3-((3,5-Bis(trifluoromethyl)phenyl)methyloxy-1-(N,N-diethylcarboxamido)methyl-2-phenylpiperidinium hydrochloride]	1.4 nM	
FC(F)(F)c1cc(CO[C@H]2CCCN[C@H]2c2ccccc2)cc(C(F)(F)F)c1 [Example 5, (+)-cis-3((3,5-Bis(trifluoromethyl)phenyl)methyloxy)-2-phenylpiperidine hydrochloride salt]	1 nM	
